Results as given in patent US20110009345A1 (priority 2009, published 2011).
No end group written: not given here.

System: adjuvant-induced arthritis
Details: male Sprague-Dawley rats, by gavage during 10 days

Substance: YGSRS [peptide, tyrosine-glycine-serine-arginine-serine]
- effect on body weight: without inducing weight loss
